Test results reported in patent US9549911B2, “Ginger metabolites and uses thereof” (North Carolina A&T State University, priority 2012, dated 2017).
Read-outs that look alike come from different tables or passages of the source. Values belong to the compound of their own block, whether it stands above or below them.

Assays:
[1] = Chemical inhibition of [6]-shogaol metabolism in liver microsomes; format: in vitro ADME, human; settings: inhibitor 500 μM, 20 min pre-incubation, [6]-shogaol 50 μM, 30 min
Procedure: Inhibitors ABT (500 μM) and 18β-GA (500 μM) or DMSO controls were pre-incubated with microsomes in experimental incubation mixture at 37° C. for 20 minutes before initiating the reaction by the addition of [6]-shogaol (50 μM). Reactions were terminated 30 minutes after substrate addition and incubation in a 37° C. water bath by equal volume of ice-cold acetonitrile with 2% acetic acid. The mixture was vortexed and underwent centrifugation at 13,000 g for 10 minutes. Aliquots of supernatant were stored at −20° C. until analysis.

[2] = tested on: human colon cancer cells HCT-116; assay: MTT growth inhibition of human cancer and normal cells (Part 2); format: cell-based; settings: for activity against cancer cells (MTT): HCT-116, 0 to 80 μM; for IC50: HCT-116, 48 h, 0 to 80 μM
Procedure: (§1) Growth inhibition of human cancer and normal cells. Cell growth inhibition was determined by a MTT colorimetric assay. Human colon cancer cells HCT-116, human lung cancer cells H-1299, human colon fibroblast cells CCD-18Co, and human lung fibroblast cells IMR-90 were plated in 96-well microtiter plates with 3000 cells/well and allowed to attach for 24 h at 37° C. […] After the cells were cultured for 48 h, the medium was aspirated and cells were treated with 200 μL fresh medium containing 2.41 mmol/L MTT. […] The reading reflected the number of viable cells and was expressed as a percentage of viable cells in the control. Both HCT-116 and H-1299 cells were cultured in McCoy's 5A medium. CCD-18Co and IMR-90 cells were cultured in Eagle's modified essential medium (EMEM). All of the above media were supplemented with 10% fetal bovine serum, 1% penicillin/streptomycin, and 1% glutamine, and the cells were kept in a 37° C. incubator with 95% humidity and 5% CO2.

[3] = tested on: human lung cancer cells H-1299; assay: as above; format: cell-based; settings: for activity against cancer cells (MTT): H-1299, 0 to 80 μM; for IC50: H-1299, 48 h, 0 to 80 μM
Procedure: as §1

HCT-116 cells [4] = assay: Western blot analysis of apoptosis markers and p53 (Part 5); format: cell-based, human; settings: HCT-116 (p53 wild-type), 24 hours; M2, 6S 10, 20 or 40 μM; 8S, M2′, 10S, M2″ 20 μM
Procedure: (§2) Cell lysates were prepared in ice-cold RIPA lysis buffer [25 mM Tris-HCl (pH 7.6), 150 mM NaCl, 1% NP-40, 1% sodium deoxycholate, 0.1% SDS, Thermo Fisher Scientific] supplemented with a protease inhibitor cocktail (AEBSF, aprotinin, bestatin, E-64, leupeptin and pepstatin A in DMSO with EDTA, Thermo Fisher Scientific). Protein content was measured by a Pierce BCA Assay Kit (Thermo Fisher Scientific). Protein contents of cell lysates (30 μg protein/lane) were resolved by SDS-PAGE. Proteins were then electro-transferred onto PVDF membranes and blots were blocked for one hour at room temperature in 1×TBS with 1% Casein (Bio-Rad Laboratories, Berkeley, Calif.). Blots were then incubated overnight at 4° C. with the desired primary antibody diluted in TBS with 0.5% Tween-20. Blots were then washed with TBS-Tween 20 and probed for 1 hour with the appropriate secondary antibody (1:1000). Protein bands were visualized with chemiluminescence using West Femto maximum detection substrate (Thermo Fisher Scientific). To confirm equal protein loading in each lane, immunoblots were stripped and re-probed for β-actin. Protein fold-induction was calculated by normalizing the intensity of the band of interest to β-actin first, and then to DMSO control lanes.

HT-29 cells = assay: as above; format: cell-based, human; settings: HT-29 (p53 mutant), 24 hours; M2, 6S 10, 20 or 40 μM; 8S, M2′, 10S, M2″ 20 μM
Procedure: as §2

[5] = tested on: human colon cancer cells HCT-116; assay: MTT toxicity in colon cancer and normal colon cells (Part 5); format: cell-based; settings: HCT-116, 24 hours
Procedure: (§3) Cell viability was determined by an MTT colorimetric assay. […] The reading reflected the number of viable cells and was expressed as a percentage of viable cells in the control. CCD-18Co cells were grown in EMEM. Both HCT-116 and HT-29 cells were cultured in McCoy's 5A medium. All of the above media were supplemented with 10% fetal bovine serum, 1% penicillin/streptomycin, and 1% glutamine, and the cells were kept in a 37° C. incubator with 95% humidity and 5% CO2.

[6] = tested on: human colon cancer cells HT-29; assay: as above; format: cell-based; settings: HT-29 (p53 mutant), 24 hours
Procedure: as §3

[7] = tested on: human lung fibroblast cells IMR-90; assay: in vitro; format: cell-based
Procedure: as §1

[8] = tested on: human colon fibroblast cells CCD-18Co; assay: in vitro; format: cell-based
Procedure: as §1

in vitro [9] = format: cell-based, human; settings: human; normal lung cells IMR-90, 48 h; read-out: IC50 (cytotoxicity, MTT)
Procedure: as §1

in vitro [10] = format: cell-based, human; settings: human; normal colon cells CCD-18Co, 48 h; read-out: IC50 (cytotoxicity, MTT)
Procedure: as §1

[11] = tested on: HCT-116 human colon cancer cells; assay: MTT growth inhibition of human cancer cells, 24 h (Part 1); format: cell-based; settings: Homo sapiens; HCT-116, 24 h, 0 to 80 μM
Procedure: (§4) The reading reflected the number of viable cells and was expressed as a percentage of viable cells in the control. Both HCT-116 and H-1299 cells were cultured in McCoy's 5A medium. All of the above media were supplemented with 10% fetal bovine serum, 1% penicillin/streptomycin, and 1% glutamine, and the cells were kept in a 37° C. incubator with 95% humidity and 5% CO2.

[12] = tested on: H-1299 human lung cancer cells; assay: as above; format: cell-based; settings: Homo sapiens, NCI-H1299; H-1299, 24 h, 0 to 80 μM
Procedure: as §4

H-1299 cells [13] = assay: TUNEL apoptosis assay (Part 1); format: cell-based, human; settings: 24 h
Procedure: (§5) HCT-116 and H-1299 cells were seeded in six-well plates at 1.0×10^5 cells/well and were incubated at 37° C. in a 5% CO2 incubator. After 24 h, fresh media supplemented with DMSO (control), [6]-shogaol (10 or 20 μM), M9 (40 or 80 μM), or M11 (40 or 80 μM) were added to the wells. After 24-h incubation, cells were washed and pretreated for 15 min at room temperature with a solution of 20 μg/ml proteinase K. Cells were then washed twice with PBS pH 7.4 and were fixed for 10 min at room temperature using 10% neutral formaldehyde solution. After two washes in distilled H2O, cells were resuspended in 100 μl of distilled H2O and were applied on silanized microscope slides. Slides were incubated overnight at 37° C. and were washed twice with PBS. Terminal deoxynucleotidyl transferase deoxyuridine triphosphate nick-end labeling (TUNEL) assay was then performed according to the manufacturer's protocol. Cells were observed under 400× power using a Zeiss A1 microscope (Carl Zeiss, Inc., Thornwood, N.Y.).
(§6) Ten fields per slide were evaluated, and TUNEL-positive cells (with brown coloration in the nucleus) were expressed as a percentage of the total number of cells contained in a field. Statistical Analysis. For simple comparisons between two groups, twotailed Student's t test was used. A p value of less than 0.05 was considered statistically significant in all the tests.

HCT-116 cells [14] = assay: TUNEL apoptosis assay (Part 1); format: cell-based, human; settings: 24 h
Procedure: as §5, §6

H-1299 cells [15] = assay: TUNEL apoptosis assay (Part 2); format: cell-based, human; settings: H-1299, 20 or 40 μM, 24 hours
Procedure: (§7) HCT-116 and H1299 cells were seeded in 6-well plates at 1×10^5 cells/well and incubated at 37° C. in 5% CO2 incubator. After 24 hours, fresh media supplemented with DMSO (control), [6]-shogaol, M2, M6, or M13 metabolites (20 μM or 40 μM) were added to the wells. After 6 or 24 hours incubation at 37° C. in 5% CO2 incubator, cells were washed and pre-treated for 15 min at room temperature with a solution of 20 μg/ml proteinase K. Cells were then washed twice with phosphate buffer saline pH 7.4 (PBS) and fixed for 10 min at room temperature using 10% neutral formaldehyde solution. After 2 washes in ddH2O, cells were resuspended in 100 μL ddH2O and applied on silanized microscope slides. Slides were incubated overnight at 37° C., and washed twice with PBS. TUNEL assay was then carried out according to the manufacturer's protocol. Cells were observed under 400× power using a Zeiss microscope A1 (Thornwood, N.Y.). 10 fields per slide were evaluated, and TUNEL+ cells (with brown coloration in the nucleus) were expressed as a percentage of the total number of cells contained in a field.

HCT-116 cells [16] = assay: TUNEL apoptosis assay (Part 2); format: cell-based, human; settings: HCT-116, 20 or 40 μM
Procedure: as §7

Compound: CC1(C)[C@@H](O)CC[C@]2(C)[C@H]3C(=O)C=C4[C@@H]5C[C@@](C)(C(=O)O)CC[C@]5(C)CC[C@@]4(C)[C@]3(C)CC[C@@H]12 [18β-glycyrrhetinic acid]
- effect on reductive metabolism of [6]-shogaol [1]: decimated the reductive metabolism

Compound: Nn1nnc2ccccc21 [ABT, 1-Aminobenzotriazole]
- effect on oxidative metabolism of [6]-shogaol [1]: abrogated
- effect on reductive metabolism of [6]-shogaol [1]: did not inhibit reductive metabolism

Compound: CCCCCC(CC(O)CCc1ccc(O)c(OC)c1)SCC(N)C(=O)O (centres unmarked) [M1, 5-cysteinyl-M6]
- activity against cancer cells (MTT) [2]: little to no activity
- activity against cancer cells (MTT) [3]: little to no activity

Compound: CCCCCCCC(CC(=O)CCc1ccc(O)c(OC)c1)SC[C@H](N)C(=O)O (some centres unmarked) [M2′, 5-cysteinyl-[8]-shogaol]
- p53 expression (Western blot) (HCT-116 cells [4]): increase in p53 accumulation
- p53 expression (Western blot) (HT-29 cells): increase in p53 accumulation
- IC50 [5]: 15.2 µM
- IC50 [6]: 31.2 µM

Compound: CCCCCCCCCC(CC(=O)CCc1ccc(O)c(OC)c1)SC[C@H](N)C(=O)O (some centres unmarked) [M2″, 5-cysteinyl-[10]-shogaol]
- p53 expression (Western blot) (HCT-116 cells [4]): increase in p53 accumulation
- p53 expression (Western blot) (HT-29 cells): increase in p53 accumulation
- IC50 [5]: 13.3 µM
- IC50 [6]: 28.8 µM

Compound: CCCCCC(CC(O)CCc1ccc(O)c(OC)c1)SCC(NC(C)=O)C(=O)O (centres unmarked) [M4, 5-N-acetylcysteinyl-M6]
- activity against cancer cells (MTT) [2]: little to no activity
- activity against cancer cells (MTT) [3]: little to no activity

- IC50 [7]: > 100 µM
- IC50 [8]: > 100 µM
Compound: CCCCCC(CC(=O)CCc1ccc(O)c(OC)c1)SC[C@H](NC(C)=O)C(=O)O (some centres unmarked) [M5, 5-N-acetylcysteinyl-[6]-shogaol]
- IC50 [2]: 54.3 µM
- IC50 [3]: 72.6 µM

Compound: CCCCCCCC(=O)CCc1ccc(O)c(O)c1 [M8, 1-(3′,4′-dihydroxyphenyl)-decan-3-one]
- IC50 ([2]; Homo sapiens): 58.8 µM
- IC50 at 48 h (in vitro [9]): > 100 µM
- IC50 at 48 h (in vitro [10]): > 100 µM

- IC50 [11]: 82.2 µM
- IC50 [12]: 77.7 µM
Compound: CCCCCCCC(O)CCc1ccc(O)c(OC)c1 (centres unmarked) [M9, 1-(4′-hydroxy-3′-methoxyphenyl)-decan-3-ol]
- IC50 ([2]; Homo sapiens): 82.2 µM
- IC50 ([3]; Homo sapiens, NCI-H1299): 82.5 µM
- IC50 at 48 h (in vitro [9]): > 100 µM
- apoptotic cells (TUNEL) (H-1299 cells [13]; H-1299, 40 μM): 7.4%
- apoptotic cells (TUNEL) (H-1299 cells [13]; H-1299, 80 μM): 15.4%
- apoptotic cells (TUNEL) (HCT-116 cells [14]; HCT-116, 40 μM): 9.6%
- apoptotic cells (TUNEL) (HCT-116 cells [14]; HCT-116, 80 μM): 16.9%
- IC50 at 48 h (in vitro [10]): > 100 µM

Compound: CCCCCC(CC(=O)CCc1ccc(O)c(OC)c1)SC (centres unmarked) [M10, 5-methylthio-1-(4′-hydroxy-3′-methoxyphenyl)-decan-3-one]
- IC50 ([2]; Homo sapiens): 78.2 µM
- IC50 ([3]; Homo sapiens, NCI-H1299): 60.6 µM
- IC50 at 48 h (in vitro [9]): > 100 µM
- IC50 at 48 h (in vitro [10]): > 100 µM

- IC50 [11]: 84 µM
- IC50 [12]: 66.5 µM
Compound: CCCCCCCC(=O)CCc1ccc(O)c(OC)c1 [M11, 1-(4′-hydroxy-3′-methoxyphenyl)-decan-3-one]
- IC50 ([2]; Homo sapiens): 84 µM
- IC50 ([3]; Homo sapiens, NCI-H1299): 66.5 µM
- IC50 at 48 h (in vitro [9]): > 100 µM
- apoptotic cells (TUNEL) (H-1299 cells [13]; H-1299, 40 μM): 8.3%
- apoptotic cells (TUNEL) (H-1299 cells [13]; H-1299, 80 μM): 19.4%
- apoptotic cells (TUNEL) (HCT-116 cells [14]; HCT-116, 40 μM): 12.9%
- apoptotic cells (TUNEL) (HCT-116 cells [14]; HCT-116, 80 μM): 21.1%
- IC50 at 48 h (in vitro [10]): > 100 µM

Compound: CCCCCC(CC(O)CCc1ccc(O)c(OC)c1)SC (centres unmarked) [M12, 5-methylthio-1-(4′-Hydroxy-3′-methoxyphenyl)-decan-3-ol]
- IC50 ([3]; Homo sapiens, NCI-H1299): 69.9 µM
- IC50 at 48 h (in vitro [9]): > 100 µM
- IC50 at 48 h (in vitro [10]): > 100 µM

- IC50 [7]: 57.5 µM
- IC50 [8]: 75.5 µM
Compound: CCCCCC(CC(=O)CCc1ccc(O)c(OC)c1)SC[C@H](NC(=O)CC[C@H](N)C(=O)O)C(=O)NCC(=O)O (some centres unmarked) [M13, 5-glutathiol-[6]-shogaol]
- IC50 [2]: 45.5 µM
- IC50 [3]: 47.8 µM
- induction of apoptosis (TUNEL) versus DMSO (H-1299 cells [15]): Apoptosis was observed
- induction of apoptosis (TUNEL) versus DMSO (HCT-116 cells [16]; 6 hours): higher levels of apoptosis
- induction of apoptosis (TUNEL) versus DMSO (HCT-116 cells [16]; 24 hours): Apoptosis was observed
